Test results as given in patent US12539335B2, “Tricyclic polypeptide conjugated drug and use thereof” (CONJUSTAR (ZHUHAI) BIOLOGICS CO., LTD., priority 2021, dated 2026).
Where a name gives a salt, the structure may show the parent alone. Starred links: 1 amine or outer side, 2 acyl side, 3 side chain; linkers in the order of their positions; H or OH if unused. Positions of bridges follow the written chain, without caps; N, C: chain ends. Non-standard residues stand in square brackets, D forms with d. Residues, ends and D or L forms follow the SMILES beside them. Chains are numbered I, II in the order given. *: point of attachment. TATA = O=C(CC[*:1])N1CN(C(=O)CC[*:2])CN(C(=O)CC[*:3])C1; Dolaproine = CO[C@@H]([C@@H]1CCCN1)[C@@H](C)C(=O)O; Dil = CC[C@H](C)[C@H](NC)[C@@H](CC(=O)O)OC; 1Nal = N[C@@H](Cc1cccc2ccccc12)C(=O)O; X2 = O=C(CCCC(=O)[*:2])NCCC(=O)[*:1]; PABC = O=C(OCc1ccc(N[*:1])cc1)[*:2]; X1 = C[C@@H](N*)[C@@H](O)c1ccccc1; Hyp = O=C(O)[C@@H]1C[C@@H](O)CN1; hArg = N=C(N)NCCCC[C@H](N)C(=O)O; Cit = NC(=O)NCCC[C@H](N)C(=O)O; Pen = CC(C)(S)[C@H](N)C(=O)O; NMeV = CN[C@H](C(=O)O)C(C)C; hCys = N[C@@H](CCS)C(=O)O; Sar = CNCC(=O)O

Tests used:
Human Nectin-4 = target: T1, Human Nectin-4 (Homo sapiens, UniProt Q96NY8); test: Binding capacity to Nectin-4 protein (SPR, Biacore 8K)
T1 construct: purchased GE Healthcare 1006-72
T1 sequence (Q96NY8 32-510): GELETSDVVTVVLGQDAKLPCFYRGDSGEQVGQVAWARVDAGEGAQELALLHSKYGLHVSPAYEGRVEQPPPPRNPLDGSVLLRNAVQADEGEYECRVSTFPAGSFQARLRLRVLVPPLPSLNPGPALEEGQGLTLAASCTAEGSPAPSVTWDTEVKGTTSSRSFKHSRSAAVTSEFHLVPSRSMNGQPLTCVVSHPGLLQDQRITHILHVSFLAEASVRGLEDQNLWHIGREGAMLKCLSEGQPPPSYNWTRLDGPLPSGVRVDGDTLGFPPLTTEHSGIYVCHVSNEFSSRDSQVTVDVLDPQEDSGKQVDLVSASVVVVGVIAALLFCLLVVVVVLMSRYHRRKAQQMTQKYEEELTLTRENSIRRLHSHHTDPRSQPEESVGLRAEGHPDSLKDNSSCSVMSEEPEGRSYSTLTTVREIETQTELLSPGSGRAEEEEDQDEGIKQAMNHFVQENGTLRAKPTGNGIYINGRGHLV
Method: Test Example 1. Binding Capacity Test of the Compounds of the Present Invention to Nectin-4 Protein
To detect the affinity of the compound to be tested to the target protein Nectin-4 using the SPR method.
• Biacore 8K (GE Healthcare) • 96-well Plate (Cat #650101, greiner bio-one) • CM5 chip (Cat #BR-1005-30, GE Healthcare) • Amine Coupling Kit (Cat #BR-1000-50, GE Healthcare) • EDC • NHS • 1 M ethanolamine • 10 mM sodium acetate pH 4.5 (Cat #BR-1003-50, GE Healthcare) • DMSO (Cat #D4540, Sigma) • P20 (Cat #BR-1000-54, GE Healthcare) • PBS (Cat #BR-1006-72, GE Healthcare) • Nectin-4 (Cat #1006-72, GE Healthcare) 3. Experimental Protocol
In this experiment, the amino coupling method was used. The target protein Nectin-4 was directly immobilized on the CM5 chip using Biacore 8K. […] The final data were subjected to Kinetics fitting analysis based on a 1:1 model using Biacore Insight Evaluation Software (V 2.0.15.12933).
1) Preparation of the buffer: 10 mM PBS, pH 7.4, 137 mM NaCl, 2.7 mM KCl, 5% DMSO, and 0.05% P20.
2) Activation of the CM5 chip: The CM5 chip was activated with 400 mM EDC and 100 mM NHS at a flow rate of 10 μL/min for 420 seconds.
3) Coupling of the target protein: The target protein was diluted to 10 μg/mL with 10 mM sodium acetate (pH 4.5) and coupled at a flow rate of 10 μL/min for 284 s. The 1 #, 2 #, and 3 #channels on the chip were used in the experiment, and the coupling results were 1639.9RU, 1747.8RU, and 1702.2RU, respectively.
4) Blocking of the CM5 chip: The CM5 chip was blocked with 1 M ethanolamine at a flow rate of 10 μL/min for 420 seconds.
5) Analyte concentration: The compound to be tested was diluted with the buffer. The compound to be tested was diluted from 100 nM to 0.78 nM in a 2-fold gradient.
6) Sample injection analysis: Each concentration of the working solution of the compound to be tested corresponded to one cycle, with a flow rate of 30 μL/min for binding for 180 seconds and dissociating for 180 seconds. The last cycle was a 5% DMSO solvent correction cycle.
7) All results were subjected to kinetics fitting analysis based on a 1:1 model. […]

[1] = Pharmacokinetic analysis in rat plasma; assay type: in vivo, SD rats
Method: Test Example 5: Pharmacokinetic Analysis of the Compounds of the Present Invention in Rat Plasma
To test the pharmacokinetics of the compounds of the present invention in SD rats.
(§1) The pharmacokinetic characteristics of the compound after intravenous injection were tested in rats according to a standard protocol. The compound to be tested was formulated into a clear solution using 25 mM L-histidine (pH=7) in 10% sucrose as a vehicle. Two rats were given a single intravenous injection of 3 mg/kg of the compound to be tested. Whole blood was collected at time points of 0.083, 0.25, 0.5, 1, 2, 4, 8, and 24 hours after administration to get plasma. The concentration of the compound of the present invention and the concentration of its potential metabolite MMAE were analyzed by the LC-MS/MS method, and the pharmacokinetic parameters were calculated by Phoenix WinNonlin software.

[2] = Pharmacokinetic analysis in Cynomolgus macaque plasma; assay type: in vivo; conditions: Cynomolgus macaques, single IV 1 mg/kg of the compound
Method: Test Example 6: Pharmacokinetic Analysis in Cynomolgus Macaque Plasma
To test the pharmacokinetics of the compounds of the present invention in Cynomolgus macaques.
as §1, with “tested” for “tested in rats”, “standard protocol in Cynomolgus macaques.” for “standard protocol.”, “vehicle. Cynomolgus macaques” for “vehicle. Two rats”, “of 1” for “of 3”, “compound to be tested” for “compound of the present invention”

[3] = metabolite MMAE in SD rat plasma after single IV 3 mg/kg acetate salt of PDC_2

SMILES: CC[C@H](C)[C@@H]([C@@H](CC(=O)N1CCC[C@H]1[C@H](OC)[C@@H](C)C(=O)N[C@H](C)[C@@H](O)c1ccccc1)OC)N(C)C(=O)[C@@H](NC(=O)[C@H](C(C)C)N(C)C(=O)OCc1ccc(NC(=O)[C@H](CCCNC(N)=O)NC(=O)[C@@H](NC(=O)CCCC(=O)NCCC(=O)N(C)CC(=O)N(C)CC(=O)N(C)CC(=O)N(C)CC(=O)N(C)CC(=O)N(C)CC(=O)N(C)CC(=O)N(C)CC(=O)N(C)CC(=O)N(C)CC(=O)N[C@H]2CCCCNC(=O)C[C@@H](C(=O)N[C@H]3CSCCC(=O)N4CN5CN(C4)C(=O)CCSC(C)(C)[C@H](NC(=O)[C@@H](CC(=O)O)NC(=O)[C@H](Cc4cccc6ccccc46)NC(=O)[C@@H]4CCCN4C3=O)C(=O)N[C@@H](CCSC)C(=O)N[C@@H](CCCCNC(=N)N)C(=O)N[C@@H](CC(=O)O)C(=O)N[C@@H](Cc3c[nH]c4ccccc34)C(=O)N[C@@H](CO)C(=O)N[C@@H]([C@@H](C)O)C(=O)N3CCC[C@H]3C(=O)N3C[C@H](O)C[C@H]3C(=O)N[C@@H](Cc3c[nH]c4ccccc34)C(=O)N[C@H](C(N)=O)CCSCCC5=O)NC(=O)CN(C)C2=O)C(C)C)cc1)C(C)C [Acetate salt of PDC_3] (I: [Sar][Sar][Sar][Sar][Sar][Sar][Sar][Sar][Sar][Sar]K[Sar]DCP[1Nal][dD][Pen]M[hArg]DWSTP[Hyp]W[hCys]-NH2 / II: V[Cit][PABC][NMeV]V[Dil][Dolaproine]-X1; lactam I:11-I:13; linker I:14-I:18-I:28 via TATA; linker I:N-II:N via X2)
- Kd (Human Nectin-4): 4.13 nM

SMILES: CC[C@H](C)[C@@H]([C@@H](CC(=O)N1CCC[C@H]1[C@H](OC)[C@@H](C)C(=O)N[C@H](C)[C@@H](O)c1ccccc1)OC)N(C)C(=O)[C@@H](NC(=O)[C@H](C(C)C)N(C)C(=O)OCc1ccc(NC(=O)[C@H](CCCNC(N)=O)NC(=O)[C@@H](NC(=O)CCCC(=O)NCCC(=O)N(C)CC(=O)N(C)CC(=O)N(C)CC(=O)N(C)CC(=O)N(C)CC(=O)N(C)CC(=O)N(C)CC(=O)N(C)CC(=O)N(C)CC(=O)N(C)CC(=O)N[C@H]2CCCCNC(=O)C[C@@H](C(=O)N[C@H]3CSCCC(=O)N4CN5CN(C4)C(=O)CCSC(C)(C)[C@H](NC(=O)[C@@H](CC(=O)O)NC(=O)[C@H](Cc4cccc6ccccc46)NC(=O)[C@@H]4CCCN4C3=O)C(=O)N[C@@H](CCSC)C(=O)N[C@@H](CCCCNC(=N)N)C(=O)N[C@@H](CC(=O)O)C(=O)N[C@@H](Cc3c[nH]c4ccccc34)C(=O)N[C@@H](CO)C(=O)N[C@@H]([C@@H](C)O)C(=O)N3CCC[C@H]3C(=O)N3C[C@H](O)C[C@H]3C(=O)N[C@@H](Cc3c[nH]c4ccccc34)C(=O)N[C@H](C(N)=O)CSCCC5=O)NC(=O)[C@H](CCCCNC(=N)N)NC2=O)C(C)C)cc1)C(C)C [Acetate salt of PDC_1] (I: [Sar][Sar][Sar][Sar][Sar][Sar][Sar][Sar][Sar][Sar]K[hArg]DCP[1Nal][dD][Pen]M[hArg]DWSTP[Hyp]WC-NH2 / II: V[Cit][PABC][NMeV]V[Dil][Dolaproine]-X1; lactam I:11-I:13; linker I:14-I:18-I:28 via TATA; linker I:N-II:N via X2)
- Kd (Human Nectin-4): 1.4 nM

SMILES: CC[C@H](C)[C@@H]([C@@H](CC(=O)N1CCC[C@H]1[C@H](OC)[C@@H](C)C(=O)N[C@H](C)[C@@H](O)c1ccccc1)OC)N(C)C(=O)[C@@H](NC(=O)[C@@H](NC)C(C)C)C(C)C [MMAE, monomethyl auristatin E] (H-[NMeV]V[Dil][Dolaproine]-X1)
- exposure of metabolite MMAE relative to exposure of the compound ([1]; SD rats, single IV 3 mg/kg): about 1/40
- AUC0-last [1, 3]: 0.11 µM·h
- Cmax [1, 3]: 70 nM
- MMAE release in blood [2]: lower MMAE release in blood than a detection limit
